Source: paper PMC10383195, “Interactions of the Kv1.1 Channel with Peptide Pore Blockers: A Fluorescent Analysis on Mammalian Cells” (Membranes, 2023)
Bridge positions count the residues as written; N and C are the ends. Peptide text beside a SMILES is read from it.

Experiments:
[1] = target: T1, mKate2-tagged human Kv1.1 (S369T) channel (K-Kv1.1) (Homo sapiens, UniProt Q09470, S369T); assay: Competitive binding of peptide pore blocker and A-HgTx to K-Kv1.1 on the plasma membrane of Neuro2a cells (confocal microscopy); conditions: A-HgTx (2 nM) displacement compared in complete medium, Na+ and K+ buffers
T1 construct: these fragments were combined and amplified using terminal primers to obtain the whole mutated gene; expressed in transfected cells; host or cells: mouse neuroblastoma Neuro2a cells, transient transfection with pmKate2-KCNA1m1
Protocol: To analyze the binding of A-HgTx, A-HgTx (0.25–4 nM) was added to cells in a complete medium for 60 min. To analyze competitive binding, A-HgTx (2 nM), together with the selected peptide (0.05–160 nM), was added to cells in a complete medium for 60 min.
To compare ligand binding with closed and open channels, ligands were added to cells (60 min, 37 °C) in a buffer (20 mM HEPES pH 7.4, 0.9 mM CaCl2, 0.5 mM MgCl2, 0.1% BSA) supplemented with 4 mM KCl and 150 mM NaCl (Na^+ buffer) or with 150 mM KCl (K^+ buffer).
The fluorescence of the K-Kv1.1 and K-Kv1.1wt channels was excited at 561 nm and detected in the 650–700 nm region. A-HgTx fluorescence was excited at 488 nm and detected in the 495–535 nm region. Sequential scanning was used to measure the cellular distributions of A-HgTx and mKate2 fluorescence in order to avoid interference of mKate2 fluorescence with cellular autofluorescence excited at 488 nm.
Quantitative analysis of the interaction of A-HgTx with K-Kv1.1 was carried out in accordance with the procedure developed previously for A-HgTx and the fluorescently labeled Kv1.3 channel. Briefly, the regions of interest with K-Kv1.1 on the plasma membrane were selected in the confocal images and used to create binary (0;1) masks that described the membranous distribution of K-Kv1.1. The confocal images of K-Kv1.1 and A-HgTx were multiplied by the corresponding mask, and the average fluorescence intensities of A-HgTx (Ili) and K-Kv1.1 (Ici) corrected for the background signal were calculated for each i-cell. Ratio Ri = Ili/Ici was calculated and averaged over 15–20 cells to obtain the Rav value and the standard deviation.
To analyze the competitive binding of the studied peptide pore blocker and A-HgTx to K-Kv1.1 on the cellular membrane, Rav data were plotted depending on the blocker concentration (C) at the constant A-HgTx concentration (L) and fitted with the following equation:Rav(C) = Rav0/(1 + C/DC50)(3) where DC50 is the blocker concentration displacing 50% of A-HgTx from the complex with K-Kv1.1, and Rav0 is Rav at C = 0.
The apparent dissociation constant (Kap) of the complex between the studied blocker and the K-Kv1.1 channel was calculated using the Cheng–Prusoff equation:Kap = DC50/(1 + L/Kd).(4)
Two independent experiments were performed, and the Kav data were averaged and presented as mean ± SEM. Fifteen to twenty-five treated cell images were the average value for each point on the curves of A-HgTx binding to the K-Kv1.1 channel.

Kv1.3 channel = conditions: cited from earlier work
Protocol: Exploring the potential of this analytical system, we have measured the Kap of the complex between the recombinant peptide Ce1 and the Kv1.1 channel (Figure 8c, Table 2) and classified Ce1 as a moderately active ligand of this channel. Toxin Ce1 was found in the venom of the scorpion Centruroides elegans and characterized as a high-affinity pore blocker of the Kv1.3 channel (IC50 = 0.7 nM). Its activity for the Kv1.1 channel was not previously reported.

Kv1.1 channel = conditions: concentrations up to 25 nM; cited from earlier work
Text: Ce1 is a member of the α-KTx2 subfamily of scorpion toxins and is a close homolog of the well-studied toxins HgTx1, MgTx, and noxiustoxin (NTx, Table 3). […] Thus, Ce1 surpasses the closest homolog NTx in affinity for Kv1.1, but inferiors MgTx and especially HgTx in this characteristic (Table 2).

T1 sequence (Q09470 whole entry S369T, the tested form may be a part): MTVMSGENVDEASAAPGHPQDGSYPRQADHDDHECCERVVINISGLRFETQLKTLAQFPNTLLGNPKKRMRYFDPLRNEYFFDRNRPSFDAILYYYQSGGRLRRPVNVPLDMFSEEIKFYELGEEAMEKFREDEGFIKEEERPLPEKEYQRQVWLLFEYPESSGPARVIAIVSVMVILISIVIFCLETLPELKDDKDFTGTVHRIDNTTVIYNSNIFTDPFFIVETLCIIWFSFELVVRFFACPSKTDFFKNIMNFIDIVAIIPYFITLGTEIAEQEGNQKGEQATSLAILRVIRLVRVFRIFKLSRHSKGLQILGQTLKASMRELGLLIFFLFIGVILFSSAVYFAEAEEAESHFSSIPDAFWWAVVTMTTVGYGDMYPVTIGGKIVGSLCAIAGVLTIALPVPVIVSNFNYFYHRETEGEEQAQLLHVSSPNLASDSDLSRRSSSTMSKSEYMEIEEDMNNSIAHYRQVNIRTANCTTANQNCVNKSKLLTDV

| Compound | effect of channel state (closed or open) on affinity of K-Kv1.1 for the peptide [1] | IC50 (Kv1.3 channel) | block of the Kv1.1 channel (Kv1.1 channel) |
| --- | --- | --- | --- |
| CC[C@H](C)[C@H](NC(=O)[C@@H](NC(=O)[C@@H](N)[C@@H](C)O)C(C)C)C(=O)N[C@@H](CC(N)=O)C(=O)N[C@H](C(=O)N[C@@H](CCCCN)C(=O)N[C@H]1CSSC[C@@H]2NC(=O)[C@H](CCCCN)NC(=O)[C@H](C)NC(=O)CNC(=O)[C@H](C)NC(=O)[C@H](Cc3c[nH]cn3)NC(=O)[C@@H]3CCCN3C(=O)CNC(=O)[C@H](Cc3ccc(O)cc3)NC(=O)[C@H](CC(C)C)NC(=O)[C@H](CC(=O)O)NC(=O)[C@H](CCCCN)NC(=O)[C@@H]3CSSC[C@@H](C(=O)N[C@@H](Cc4ccc(O)cc4)C(=O)N[C@@H](CC(N)=O)C(=O)N[C@@H](CC(N)=O)C(=O)O)NC(=O)[C@H](CCCCN)NC(=O)[C@H](CSSC[C@H](NC(=O)[C@H](CCC(N)=O)NC(=O)[C@H](CCCCN)NC(=O)[C@@H]4CCCN4C(=O)[C@H](CO)NC(=O)[C@H]([C@@H](C)O)NC1=O)C(=O)N[C@@H](CC(C)C)C(=O)N[C@@H](CCCCN)C(=O)N1CCC[C@H]1C(=O)N3)NC(=O)[C@H](CCCCN)NC(=O)CNC(=O)[C@H](CC(N)=O)NC(=O)[C@H](CCSC)NC2=O)C(C)C [Ce1] (H-TVINVKCTSPKQCLKPCKDLYGPHAGAKCMNGKCKCYNN-OH; disulfide 7-29, 13-34, 17-36 (inferred); N-terminus and C-terminus assumed) | does not affect the affinity | 0.7 nM | – |
| noxiustoxin [NTx] | – | – | does not block |
